The values below come from paper PMC8495692 (ACS Omega, 2021).

As usually defined, the inhibition is the relative decrease from the control value, in per cent. One may read the IC50 as the concentration at which inhibition is half-maximal.

For one test, the system named is human IRAK4. Briefly: IRAK4 kinase assay. The following applies: 10 μM compound; ATP 10 μM. Format: biochemical.
A further test has as its target human IRAK1 (Homo sapiens, UniProt P51617). Kind of test: IRAK1 kinase assay. The format is biochemical. The note with it: for inhibition at 10 µM: read-out: % of kinase inhibition (mean), IRAK1, 10 μM compound.
Test [1] has as its system LPS-stimulated PMA-induced human THP-1 macrophages. Briefly: Cytokine production, CBA array beads with flow cytometry. Format: cell-based. The following applies: 1 μM, 24 h, compared to control DMSO. For orientation: A flow cytometer gives signals particle by particle.
Test [2] has as its system cells overexpressing IRAK1. Kind of test: MTT cytotoxicity on cells overexpressing IRAK1. Format: cell-based. The following applies: Homo sapiens, read-out: IC50, toxicity on cells overexpressing IRAK1.
For a further test, the system named is IRAK4. The note with it: read-out: IC50 against IRAK4; cited from earlier work.
The subject of another test is IRAK1. The note with it: read-out: IC50 against IRAK1; cited from earlier work.

Molecules are shown by their SMILES. Marks after values point to notes of the source that are not given here.

Sequence of human IRAK1 (P51617 whole entry): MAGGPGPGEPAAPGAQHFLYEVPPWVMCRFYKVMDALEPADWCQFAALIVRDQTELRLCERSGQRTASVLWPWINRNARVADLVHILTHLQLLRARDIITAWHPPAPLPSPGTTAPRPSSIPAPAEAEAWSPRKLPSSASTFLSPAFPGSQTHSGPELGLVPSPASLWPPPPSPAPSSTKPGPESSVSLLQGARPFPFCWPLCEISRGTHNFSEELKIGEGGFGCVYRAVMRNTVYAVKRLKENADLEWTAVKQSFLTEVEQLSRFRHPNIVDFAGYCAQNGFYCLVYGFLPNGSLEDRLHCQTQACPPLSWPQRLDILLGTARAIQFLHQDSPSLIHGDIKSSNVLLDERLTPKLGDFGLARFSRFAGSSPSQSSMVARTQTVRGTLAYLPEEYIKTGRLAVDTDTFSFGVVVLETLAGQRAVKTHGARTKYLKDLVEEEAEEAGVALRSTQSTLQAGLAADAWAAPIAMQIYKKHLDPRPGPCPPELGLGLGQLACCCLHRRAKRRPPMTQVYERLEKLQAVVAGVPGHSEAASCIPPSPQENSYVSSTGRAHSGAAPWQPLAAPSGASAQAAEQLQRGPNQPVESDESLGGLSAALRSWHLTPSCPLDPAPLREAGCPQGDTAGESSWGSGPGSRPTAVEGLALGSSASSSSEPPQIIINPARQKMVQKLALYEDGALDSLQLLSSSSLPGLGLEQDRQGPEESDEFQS

For `O=C1C=CC(=O)C=C1` [1,4-benzoquinone], the “% of kinase inhibition (mean), IRAK4” value with human IRAK4 came to 0%. Besides, the inhibition at 10 µM at human IRAK1 (ATP 10 μM) turned out to be 20%.
As to `O=C1C=CC(=O)c2ccccc21` [1,4-naphthoquinone], the “% of kinase inhibition (mean), IRAK4” value in the test with human IRAK4 was determined as 10%. Besides, the figures for the IC50 (against human IRAK1; in test [2]) were 914 nM and less than 10000 nM, respectively. The “IL-8, IL-1β, and IL-10 levels in supernatant” value in test [1] (p-value < 0.01) was “most downregulated”. For the same compound, the “levels of most of measured cytokines (IL-1β, TNF-α, IL-10, IL-6, IL-8, IL-12β) in supernatant” value in test [1] (p-value < 0.05) is recorded as “significant decrease”.
Take `C=CC(=O)Nc1cccc(C(=O)Nc2ccc(NC(=O)c3cccc(-c4ccn[nH]4)n3)cc2)c1` [JH-X-119-01]: the half-maximal inhibitory concentration (IC50) with IRAK4 was greater than 10000 nM.
Take `Cc1cc(O)c2c(c1)C(=O)c1cc(O)cc(O)c1C2=O` [emodin, 1,3,8-trihydroxy-6-methylanthraquinone]: the “% of kinase inhibition (mean), IRAK4” value in the test on human IRAK4 is given as 9%. On human IRAK1, this compound showed an IC50 of 1430 nM.
As for `Oc1ccc(O)cc1` [hydroquinone], the “% of kinase inhibition (mean), IRAK4” value with human IRAK4 was determined as 4%. Also, the inhibition at 10 µM at human IRAK1 (ATP 10 μM) came to 15%.
The corresponding values for `O=C1C=CC(=O)c2c(O)cccc21` [juglone, 5-hydroxy-1,4-naphthoquinone] are 0% and 0%.
The corresponding values for `CC(C)=CCC1=C(O)C(=O)c2ccccc2C1=O` [lapachol, 2-hydroxy-3-(3-methyl-2-butenyl)-1,4-naphthoquinone] are 3% and 8%.
As for `CC1=CC(=O)c2ccccc2C1=O` [menadione (Vitamin K3), menadione, reference compound], the “% of kinase inhibition (mean), IRAK4” value with human IRAK4 stood at 0%. This compound also returned an IC50 against human IRAK1 of 45100 nM. In addition, the “% of kinase inhibition (mean), IRAK1” value on human IRAK1 (10 μM compound, ATP 10 μM) is 28 ^a %. Further, the inhibition at 10 µM at human IRAK1 (ATP 10 μM) was greater than 20%.
Take `C1=C/COCc2cc(ccc2OCCN2CCCC2)Nc2nccc(n2)-c2cccc(c2)COC/1` [pacritinib]: the IC50 in the test with IRAK1 was 6 nM; with IRAK4, 177 nM.
Consider `CC1=C(C/C=C(\C)CCC[C@H](C)CCC[C@H](C)CCCC(C)C)C(=O)c2ccccc2C1=O` [phylloquinone (Vitamin K1), phylloquinone, reference compound], for which the “% of kinase inhibition (mean), IRAK4” value in the test on human IRAK4 is 9%. The inhibition at 10 µM on human IRAK1 (ATP 10 μM) was found to be 14%.
As to `CC1=CC(=O)c2c(O)cccc2C1=O` [plumbagin, 5-hydroxy-2-methyl-1,4-naphthoquinone], the “% of kinase inhibition (mean), IRAK4” value in the test with human IRAK4 is listed as 0%. On human IRAK1, 6330 nM corresponded to half-maximal inhibition (IC50).
In the case of `CC(C)=CCC(O)C1=CC(=O)c2c(O)ccc(O)c2C1=O` (stereo not drawn) [shikonin, 5,8-dihydroxy-2-(1-hydroxy-4-methyl-3-pentenyl)-1,4-naphthoquinone], the “% of kinase inhibition (mean), IRAK4” value in the test on human IRAK4 is 0%. At human IRAK1, this compound displayed an IC50 of 4530 nM.
With `CC1=CC(=O)C(C(C)C)=CC1=O` [thymoquinone, 2-isopropyl-5-methyl-1,4-benzoquinone], in the test on human IRAK4, the “% of kinase inhibition (mean), IRAK4” value was found to be 0%. Further, the inhibition at 10 µM on human IRAK1 (ATP 10 μM) turned out to be 5%.
